Test results from US7781580B2, “Stilbene derivatives as new cancer therapeutic agents” (Virginia Commonwealth University, priority 2007, dated 2010).

Assays:
[1] = test system: MDA-MB231 breast cancer cells; experiment: Alamar Blue cell growth inhibition, MDA-MB231; assay type: cell-based; conditions: based on previous IC50 data
Outline: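 Cells at 50% confluence treated in triplicate for 48 hours with 0, 0.01, 0.03, 0.1, 0.3, 1.0, 3.0, 10 μM compound or 0.1% DMSO vehicle. Alamar Blue added at 1/10 volume for 2 hours, absorbance at 570 and 600 nm; percentage growth calculated against untreated cells using the extinction-coefficient formula.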

[2] = test system: UCI101 ovarian cancer cells (xenograft); experiment: UCI101 xenograft in nude mice; assay type: in vivo; conditions: mouse, in vivo
Description: (§1) (a) In vitro sensitivity of UCI101 cells toward three potential stilbene prodrugs, 5a-c, was tested in 96-well plates using Alamar Blue™ assays to determine cell growth inhibition. […] (b) 5b induces cell cycle change and apoptosis in UCI101 cells. Cells were incubated with 5b at 1, 3, 10 μM for 16 hours followed by PI staining and flow cytometry analysis. A subG0/1 population, representing apoptotic cells, appeared along with a decrease of the G1/G2 ratio after cells were treated with 3 μM 5b. Higher concentration (10 μM) of 5b completely killed cells, as was the case with stilbene 4a at 100 μM. (c) Cells treated with stilbene 4a and 5b were stained with phospho-histone 3B, a mitotic marker. The positive signals of phospho-histone 3B were shown in green and nuclei were stained with DAPI in blue. […] (d) In vivo efficacy of 5b compared with stilbene 4a. Nude mice were injected with UCI101 ovarian cancer cells and treated with 7 doses of 5b,c or stilbene 4a every 2-3 days. Tumor volume was calculated and plotted against days.
We next tested whether 5b could be converted into stilbene 4a in circulation. […] Blood was collected at 20, 60 and 240 min after injection for spot check of stilbene 4a level in serum. […] The in vivo efficacy of 5b and 5c was compared to stilbene 4a in a pilot study using 5 mice in each group.

[3] = acute toxicity in dose escalating study; assay type: in vivo, mice; conditions: 100 mg/kg intraperitoneally
Description: Acute toxicity in dose escalating study: We investigated the efficacy of stilbene 4a in vivo using mouse xenograft model. First we determined the maximal tolerated dose of stilbene 4a since it has a higher potency in vitro. […] Subsequently mice fully recovered 30 min after injection.

[4] = test system: c-kit-positive progenitor cells (engraftment); experiment: bone marrow transplantation of stilbene-treated progenitor cells; assay type: in vivo, mice; conditions: cells incubated at 0.1 or 0.5 μM for 16 hours
Description: FIG. 16. (a) Effect of stilbenes in normal bone marrow progenitor cells. c-kit-positive bone marrow mononuclear cells were isolated for incubation with stilbenes 4a or 4c at 0.1 or 0.5 […] for 16 hours. Cells were harvested for fixation and PI staining. Cell cycle analysis and quantification of the subG0/1 population were analyzed by FACScan flow cytometry. The percentages of the apoptotic population were indicated. Shown are the representatives of two independent experiments. (b) Effect of stilbenes in HL60 cells as positive control. HL60 cells were treated with stilbenes 4a or 4c in the same medium as the positive control. (c) Colony forming assay of the stilbene-treated c-kit-positive cells. […] Cells were incubated for 14 days and the grossly visible colonies were counted. […] Mice were monitored for survival and lineage-specific donor engraftment by flow cytometry analysis of peripheral blood. […]
C57BL/6J (H2b, CD45.2) mice served as bone marrow donors and were between 6-10 weeks of age. […] Peripheral blood engraftment in recipient mice was assessed by flow cytometry analysis for CD3+ (145-2C11; BD Biosciences, San Jose, Calif.) T-cells, B220+ (RA3-6B2) B-cells, Mac1+ (M1/70.15) monocytes, and Gr1+ (8C5) granulocytes and distinguished between donor versus recipient with anti-CD45.1 (A20) and anti-CD45.2 (104) monoclonal antibodies.

[5] = test system: UCI101 cells; experiment: cell cycle analysis (propidium iodide, FACScan), UCI101; assay type: cell-based
Description: Cells were stained with propidium iodide and analyzed with FACScan. Both 5b at 3 μM and stilbene 4a at 30 nM induce a subG0/1 population that represents the dead population. At higher concentrations of either compound, nearly all cells are dead.
as §1, with “Cells were incubated with 5b at 1, 3, 10 μM for 16 hours followed by PI staining and flow cytometry analysis.” left out, “Higher concentration (10 μM) of 5b completely killed cells, as was the case with stilbene 4a at 100 μM.” left out

COc1cc(/C=C\c2ccc(OC)c(N)c2)cc(OC)c1 [4a, (Z)-5-[2-(3,5-Dimethoxy-phenyl)-vinyl]-2-methoxy-phenylamine]
times less potent than CA4 [1]: 10
mouse weight [2]: did not show any significant change
acute toxicity at 100 mg/kg intraperitoneally [3]: no sign of weakness was observed
radioprotection of lethally irradiated mice by treated progenitor cells [4]: all mice were rescued from lethal irradiation
cell cycle effect ([5]; 4a at 30, 100 nM, 5b at 1, 3, 10 μM): induced G2/M cell cycle arrest and accumulation of the subG1/0 population
concentration inducing a subG0/1 (dead) population ([5]; 24 hours): 30 nM
